US4138480A, “Novel anthracycline glycosides and methods of preparing the same” (priority 1976, dated 1979)
pIC50: −log10 of the molar value. Entries after “also recorded” stand apart in the source; their conditions may differ.

What was measured:
[1] = tested on: leukemia 1210 mouse cells; assay: Inhibition of DNA synthesis of leukemia 1210 mouse cells; format: cell-based; conditions: read-out: Percent of Inhibition of DNA Synthesis
[2] = tested on: spleen weight and immunocompetent cells; assay: Comparative testing of immunosuppressive properties (spleen weight, immunocompetent cells)
rabbit electrocardiogram = assay: Electrocardiographic alterations after intravenous injection to the rabbit
[3] = Passage of hematoencephalic and intestinal barriers; conditions: in vivo
[4] = tested on: leukemia P-338 of the mouse; assay: Therapeutic activity in leukemia P-338 of the mouse; format: in vivo; conditions: 0 mg/kg 11 days
[5] = cumulative doses; cited from earlier work
leucocytes = assay: Hematological toxicity, leucocyte count; format: in vivo; conditions: day 7, day 0 4.700
[6] = molecular target: T1, ATPase sodium-potassium dependent enzyme (Na-K ATPase) (Oryctolagus cuniculus, UniProt Q9N0Z6); assay: Activity of the ATPase Na-K dependent enzyme isolated from rabbit heart; format: biochemical
T1 construct: isolated from rabbit heart; from tissue; host or cells: rabbit heart
Excerpt: (§1) From these facts, it can be deduced, on the basis of the results of Table I as well, that the metallic derivative of doxorubicin formed with the metal proportion 2:1 or higher, lacks the inhibiting effect on the Na-K ATPase, that is to say, they would lack cardiotoxicity. […] The remaining chelates described herein may be expected to behave similarly. […] The compounds have the structure depicted in Formula I wherein R is as in Formula II and R1 is as given.

[7] = Toxicity: survivors after one intraperitoneal injection in mice; conditions: mouse, in vivo, ip
Method: The drugs were administered by only one intraperitoneal injection to groups of ten mice and the numbers of survivors were recorded after eight days.

Na-K ATPase = Na-K ATPase (Oryctolagus cuniculus, UniProt Q9N0Z6); assay: 50% inhibition of Na-K ATPase by doxorubicin analogs; format: biochemical; conditions: read-out: Concentration for 50% Inhibition NaK ATPase
Excerpt: as §1

[8] = read-out: Percent of the ATPase Na-K Dependent Activity

## COc1cccc2c1C(=O)c1c(O)c3c(c(O)c1C2=O)C[C@@](O)(C(=O)CO)C[C@@H]3O[C@H]1C[C@H](N)[C@H](O)[C@H](C)O1 [Doxorubicin]
[1]; 3 μM
  inhibition at 3 µM: 60%
[1]; 5 μM
  inhibition at 5 µM: 68%
[1]; 7.5 μM
  inhibition at 7.5 µM: 75%
[1]; 10 μM
  inhibition at 10 µM: 90%
[2]
  immunosuppression (spleen weight and immunocompetent cells): depressed spleen weight and immunocompetent cells to a significant extent
Rabbit electrocardiogram
  alterations of the electrocardiogram, in words: very intense
[3]
  passing both hematoencephalic and intestinal barriers: does not to an effective degree
[4]; 4 mg/kg i.p.
  Days of Mean Survival of Leukemic Mice: 50 days
[4]; 8 mg/kg i.p.
  Days of Mean Survival of Leukemic Mice: 48 days
[4]; 12 mg/kg i.p.
  Days of Mean Survival of Leukemic Mice: 42 days
[4]; 24 mg/kg i.p.
  Days of Mean Survival of Leukemic Mice: 6 days
[4]; 36 mg/kg i.p.
  Days of Mean Survival of Leukemic Mice: 4 days
[5]
  cumulative dose attended by severe, oftentimes lethal cardiotoxicity: > 500 mg. per square meter
leucocytes; 10 mg/kg
  Leucocyte Count/mm^3: 3.300 /mm^3
leucocytes; 20 mg/kg
  Leucocyte Count/mm^3: 2.400 /mm^3
[6]
  effect of calcium on ATPase inhibition: counteracted by calcium
  inhibition of Na-K ATPase, in words: strong inhibitor; also recorded: potent inhibitor
[6]; [8]
  activity at 10 pM: 40%
  activity at 0.001 µM: 25%
  activity at 0.1 µM: 25%
  activity at 10 µM: 25%
  activity at 100 fM: 65%
[7]; 10 mg/kg
  survival at 192 h: 100%
[7]; 20 mg/kg
  survival at 192 h: 60%
[7]; 30 mg/kg
  survival at 192 h: 0%
[7]; 40 mg/kg
  survival at 192 h: 0%
[7]; 50 mg/kg
  survival at 192 h: 0%
[7]; 60 mg/kg
  survival at 192 h: 0%

## CCCCC(=O)NN=C(C)[C@]1(O)Cc2c(O)c3c(c(O)c2[C@@H](O[C@H]2C[C@H](N)[C@H](O)[C@H](C)O2)C1)C(=O)c1c(OC)cccc1C3=O [NSC-211391]
Na-K ATPase
  pIC50: 6.00

## COc1cccc2c1C(=O)c1c(O)c3c(c(O)c1C2=O)C[C@@](O)(C(CO)=NNC(=O)c1ccccc1)C[C@@H]3O[C@H]1C[C@H](N)[C@H](O)[C@H](C)O1 [NSC-216071]
Na-K ATPase
  pIC50: 5.00

## COc1ccc(C(=O)NN=C(C)[C@]2(O)Cc3c(O)c4c(c(O)c3[C@@H](O[C@H]3C[C@H](N)[C@H](O)[C@H](C)O3)C2)C(=O)c2c(OC)cccc2C4=O)cc1 [NSC-219976]
Na-K ATPase
  pIC50: 9.00

## COc1cccc2c1C(=O)c1c(O)c3c(c(O)c1C2=O)C[C@@](O)(C(C)=NNC(=O)c1ccc(O)cc1)C[C@@H]3O[C@H]1C[C@H](N)[C@H](O)[C@H](C)O1 [NSC-221264]
Na-K ATPase
  pIC50: 10.00

## COc1cccc2c1C(=O)c1c(O)c3c(c(O)c1C2=O)C[C@@](O)(C(C)=NNC(=O)c1ccc([N+](=O)[O-])cc1)C[C@@H]3O[C@H]1C[C@H](N)[C@H](O)[C@H](C)O1 [NSC-221265]
Na-K ATPase
  pIC50: 5.00

## COc1cccc2c1C(=O)c1c(O)c3c(c(O)c1C2=O)C[C@@](O)(/C(C)=N/NC(=O)c1ccc(Cl)c(Cl)c1)C[C@@H]3OC1CC(N)C(O)C(C)O1 (stereo partly shown) [NSC-221266]
Na-K ATPase
  pIC50: 6.00

## COc1cccc2c1C(=O)c1c(O)c3c(c(O)c1C2=O)C[C@@](O)(C(C)=NNC(=O)c1ccc(N(C)C)cc1)C[C@@H]3O[C@H]1C[C@H](N)[C@H](O)[C@H](C)O1 [NSC-227013]
Na-K ATPase
  pIC50: 10.00

## CCc1ccc(C(=O)N/N=C(\C)[C@]2(O)Cc3c(O)c4c(c(O)c3[C@H](O[C@H]3C[C@H](N)[C@H](O)[C@H](C)O3)C2)C(=O)c2c(OC)cccc2C4=O)cc1 [NSC-233854]
Na-K ATPase
  pIC50: 7.00

## CCCOc1ccc(C(=O)NN=C(C)[C@]2(O)Cc3c(O)c4c(c(O)c3[C@@H](O[C@H]3C[C@H](N)[C@H](O)[C@H](C)O3)C2)C(=O)c2c(OC)cccc2C4=O)cc1 [NSC-234740]
Na-K ATPase
  pIC50: 8.00

## COc1cccc2c1C(=O)c1c(O)c3c(c(O)c1C2=O)CC(O)(/C(C)=N/NC(=O)c1ccc(-c2ccccc2)cc1)CC3OC1CC(N)C(O)C(C)O1 (stereo not shown) [NSC-236672]
Na-K ATPase
  pIC50: 9.00

## COC(=O)[C@]1(O)Cc2c(O)c3c(c(O)c2[C@@H](O[C@H]2C[C@H](N)[C@H](O)[C@H](C)O2)C1)C(=O)c1c(OC)cccc1C3=O [NSC-237638]
Na-K ATPase
  pIC50: 9.00

## COc1cccc2c1C(=O)c1c(O)c3c(c(O)c1C2=O)C[C@@](O)(/C(CO)=N/NC(=O)c1ccc(Cl)c(Cl)c1)C[C@@H]3OC1CC(N)C(O)C(C)O1 (stereo partly shown) [NSC-237672]
Na-K ATPase
  pIC50: 5.00
